1 molecule from patent US20260138970A1, “MODULATORS OF THE CALCIUM SIGNALING CASCADE” (FONDAZIONE TELETHON ETS, priority 2022, published 2026) can be followed below.

One assay deals with T1, T267M ITPR1 (Homo sapiens, UniProt Q14643, T267M).
T1 construct: expressed in transfected cells
In words: IP3 uncaging assay, HEK293 cells expressing T267M-ITPR1. In kind it is cell-based. As to conditions: compound 10 μM; tetracycline-treated; FIG. 6D. How it is done: HEK293 cells stably transfected with tetracycline-inducible expression of wild type or mutant (R269W or T267M) ITPR1, kindly provided by Prof. S. R. Wayne Chen (University of Calgary; ref. 14), were cultured in a mixture of Dulbecco's Modified Eagle Medium (DMEM, high glucose version) and Ham's F12 (1:1) and supplemented with 10% fetal bovine serum, 2 mM L-glutamine, 100 U/ml penicillin and 100 μg/ml streptomycin. Cells were selected with 0.5 mg/ml hygromycin B and induced with 1 μg/ml tetracycline.
FRT and HEK293 cells were cultured in μ-Plate96 microplates (Ibidi) at subconfluent condition. Cells were washed 2 times with PBS (150 μl/wash) and then loaded for 45 min at 37° C. with 1 μM ci-IP3/PM (Tocris; catalog number: 6210/10U) and 5 μM Fluo-4/AM (Thermo Fisher Scientific) in PBS containing 10 mM glucose, 0.5 mM sulfinpyrazone and 1% fetal bovine serum. After 45 min, cells were further incubated for 1 h at 37° C. with a fresh PBS solution containing Fluo-4/AM, glucose, sulfinpyrazone, serum, but no ci-IP3/PM. […] Analysis was performed with MetaFluor software, by quantifying Fluo-4 fluorescence in manually selected single cell region of interest (ROI). […] After background subtraction, fluorescence traces were normalized for the initial value.

For the next assay, the target named is ITPR1 (Homo sapiens, UniProt Q14643). In words: On-nucleus patch-clamp single-channel recordings, HEKR1 cells expressing ITPR1-EYFP. On the set-up: EYFP; expressed in transfected cells; nuclei isolated for on-nucleus patch clamp. The note with it: 20 μM in pipette solution. The assay is classed as biochemical. On the procedure:
Nuclear membrane patch currents were recorded in HEKR1 cells stably transfected with a plasmid encoding human ITPR1 tagged with Enhanced Yellow Fluorescent Protein (EYFP) kindly provided by Prof. Colin W. Taylor (University of Cambridge) (17). For nuclei isolation, at least 1,000,000 HEKR1-ITPR1-EYFP cells plated in a 35 mm Petri dish were used following the protocol for patch clamp on the outer nuclear membrane (18,19). Briefly, a Duall homogenizer 20 tube (Kimble Chase 885482-0020) and a tissue grind (Kimble 885480-0020) were used. 20 strokes were applied to cells suspended in NIS-0 solution (25). NIS-O solution consisted of 40 ml of sucrose buffer (150 mM KCl, 250 mM sucrose, 1.4 mM β-mercaptoethanol, 10 mM Tris-HCl; pH 7.3 with KOH) supplemented with one tablet of complete protease inhibitor cocktail (Roche) and 200 μM PMSF.
Borosilicate glass pipettes were pulled on a two-step vertical puller (Narishige) to a final resistance of around 15-20 MO, as measured in the working solution. […]
During experiments, the membrane capacitance was analogically compensated using the circuitry provided by the EPC10 patch-clamp amplifier. […] Data were analysed using the Igor software (WaveMetrics, Lake Oswego, OR, USA) supplemented by custom software kindly provided by Dr. Oscar Moran (Institute of Biophysics, CNR, Genova, Italy).
On the technique in general: Patch clamp records ionic current or voltage across a cell membrane.

Structures are written as SMILES.

Chain of ITPR1 (Q14643 whole entry): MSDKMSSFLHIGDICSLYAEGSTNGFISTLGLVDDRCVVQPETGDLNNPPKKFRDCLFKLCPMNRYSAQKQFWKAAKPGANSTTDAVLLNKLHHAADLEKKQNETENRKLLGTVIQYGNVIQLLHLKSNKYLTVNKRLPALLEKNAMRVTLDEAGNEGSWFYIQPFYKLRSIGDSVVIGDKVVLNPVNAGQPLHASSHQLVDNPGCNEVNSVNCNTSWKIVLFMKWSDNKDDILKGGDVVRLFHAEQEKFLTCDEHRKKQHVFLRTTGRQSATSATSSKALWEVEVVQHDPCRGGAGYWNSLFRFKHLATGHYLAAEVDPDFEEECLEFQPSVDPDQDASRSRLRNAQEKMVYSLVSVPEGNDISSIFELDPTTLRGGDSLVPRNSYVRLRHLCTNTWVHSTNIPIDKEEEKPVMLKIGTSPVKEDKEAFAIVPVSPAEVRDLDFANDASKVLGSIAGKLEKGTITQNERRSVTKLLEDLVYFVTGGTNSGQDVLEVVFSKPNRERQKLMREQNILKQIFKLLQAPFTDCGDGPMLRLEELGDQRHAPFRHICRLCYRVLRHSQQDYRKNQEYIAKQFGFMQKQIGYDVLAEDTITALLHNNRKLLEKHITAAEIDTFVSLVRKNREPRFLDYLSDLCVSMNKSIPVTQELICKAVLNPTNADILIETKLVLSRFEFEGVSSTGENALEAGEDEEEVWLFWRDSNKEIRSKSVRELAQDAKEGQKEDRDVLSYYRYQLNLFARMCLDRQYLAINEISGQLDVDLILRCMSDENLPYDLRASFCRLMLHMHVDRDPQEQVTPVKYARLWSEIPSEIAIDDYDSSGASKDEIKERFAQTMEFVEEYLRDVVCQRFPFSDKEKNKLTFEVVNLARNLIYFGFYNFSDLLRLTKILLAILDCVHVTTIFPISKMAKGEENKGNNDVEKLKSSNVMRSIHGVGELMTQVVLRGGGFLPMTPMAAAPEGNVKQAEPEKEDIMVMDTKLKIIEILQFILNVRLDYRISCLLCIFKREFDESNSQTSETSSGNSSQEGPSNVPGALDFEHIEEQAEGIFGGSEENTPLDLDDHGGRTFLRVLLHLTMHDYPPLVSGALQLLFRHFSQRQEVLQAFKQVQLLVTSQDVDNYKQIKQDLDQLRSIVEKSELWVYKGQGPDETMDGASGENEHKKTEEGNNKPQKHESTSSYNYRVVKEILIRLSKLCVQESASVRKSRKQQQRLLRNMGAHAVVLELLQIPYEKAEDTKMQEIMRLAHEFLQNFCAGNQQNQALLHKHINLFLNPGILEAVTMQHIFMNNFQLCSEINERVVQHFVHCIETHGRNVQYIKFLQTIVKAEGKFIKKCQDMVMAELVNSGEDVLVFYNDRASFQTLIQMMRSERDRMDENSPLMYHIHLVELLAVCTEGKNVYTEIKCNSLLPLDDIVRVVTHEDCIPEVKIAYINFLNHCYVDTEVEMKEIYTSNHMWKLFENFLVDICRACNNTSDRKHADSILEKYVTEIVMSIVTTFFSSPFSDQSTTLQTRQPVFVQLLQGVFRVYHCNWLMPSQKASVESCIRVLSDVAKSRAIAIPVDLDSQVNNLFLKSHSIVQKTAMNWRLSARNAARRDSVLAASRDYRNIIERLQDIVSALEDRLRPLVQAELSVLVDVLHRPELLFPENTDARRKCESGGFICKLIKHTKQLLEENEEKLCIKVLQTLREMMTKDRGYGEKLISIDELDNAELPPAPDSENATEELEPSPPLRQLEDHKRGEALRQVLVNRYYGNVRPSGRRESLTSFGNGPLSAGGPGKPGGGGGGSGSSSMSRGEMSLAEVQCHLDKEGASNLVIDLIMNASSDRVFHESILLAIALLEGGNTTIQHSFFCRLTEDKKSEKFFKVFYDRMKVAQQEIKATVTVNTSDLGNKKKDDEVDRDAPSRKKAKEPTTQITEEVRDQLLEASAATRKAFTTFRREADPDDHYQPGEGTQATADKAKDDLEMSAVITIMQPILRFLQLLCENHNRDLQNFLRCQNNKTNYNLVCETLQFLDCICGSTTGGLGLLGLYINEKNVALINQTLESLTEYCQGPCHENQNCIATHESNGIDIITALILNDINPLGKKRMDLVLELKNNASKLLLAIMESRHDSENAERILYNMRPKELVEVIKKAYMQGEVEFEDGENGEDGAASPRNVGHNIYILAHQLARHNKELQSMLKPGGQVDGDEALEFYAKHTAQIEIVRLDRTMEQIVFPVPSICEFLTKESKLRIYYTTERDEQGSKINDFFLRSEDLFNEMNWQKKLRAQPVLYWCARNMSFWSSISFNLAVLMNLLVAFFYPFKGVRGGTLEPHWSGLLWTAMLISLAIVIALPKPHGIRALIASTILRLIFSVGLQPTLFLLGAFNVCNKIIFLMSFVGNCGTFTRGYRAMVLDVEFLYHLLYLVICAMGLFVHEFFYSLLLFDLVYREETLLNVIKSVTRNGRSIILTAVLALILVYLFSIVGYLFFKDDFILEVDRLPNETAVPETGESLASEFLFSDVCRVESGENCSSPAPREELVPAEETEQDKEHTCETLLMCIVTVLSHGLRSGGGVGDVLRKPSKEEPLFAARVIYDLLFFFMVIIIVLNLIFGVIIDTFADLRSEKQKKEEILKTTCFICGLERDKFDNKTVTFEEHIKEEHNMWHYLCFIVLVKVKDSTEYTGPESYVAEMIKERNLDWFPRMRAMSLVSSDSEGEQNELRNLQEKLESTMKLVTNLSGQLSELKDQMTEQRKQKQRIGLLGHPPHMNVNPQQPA

Regarding `CCn1nc2c(c1C(=O)Nc1ccccc1OCC1CCCCO1)CCCC2` (stereo not drawn) [ARN11391, 2-Ethyl-N-[2-(tetrahydropyran-2-ylmethoxy)phenyl]-4,5,6,7-tetrahydroindazole-3-carboxamide], the “Ca2+ mobilization elicited by IP3 uncaging, T267M-ITPR1” value on T267M ITPR1 is on record as “significantly amplified”. At ITPR1 (Vp=+40 mV, FIG. 6A), the “open channel probability (Po), average” value was ~0.2. In addition, the “attempts with single channel openings of the expected ITPR1 current amplitude” value at ITPR1 (~10 pA at +40 mV) is given as 5 out of 32.
